These results are taken from US10004740B2, “Prodrugs of HIV reverse transcriptase inhibitors” (Merck Sharp & Dohme Corp., priority 2014, dated 2018).

In data set [1] the target is T1, HIV-1 RT wild-type enzyme (Human immunodeficiency virus type 1 group M subtype B, UniProt P04585).
T1 construct: The HIV-1 RT wild-type enzyme (final concentration of 83 pM)
The experiment in a line: Determination of HIV-1 reverse transcriptase inhibitory activity (RT polymerase assay, electrochemiluminescence). In kind it is biochemical. From the text: Determination of HIV-1 Reverse Transcriptase Inhibitory Activity
The heterodimeric nucleic acid substrate used in the HIV-1 RT polymerase reactions was generated by annealing the DNA primer, biotinylated pD500 (Sigma Aldrich, USA, 5′-biotin-ttg aaa tga ctg cgg tac ggc-3′), (SEQ ID NO: 1) to the nucleotide RNA template t500 (derived from hepatitis C virus [HCV] sequence, IBA, Germany, 5′-[…]-3′), (SEQ ID NO: 2). The HIV-1 RT wild-type enzyme (final concentration of 83 pM) was combined with an inhibitor or dimethyl sulfoxide (DMSO, 10% in the final reaction mixture) in assay buffer (62.5 mM Tris-HCl [pH 7.8], 1.25 mM dithiothreitol, 7.5 mM MgCl2, 100 mM KCl, 0.03% CHAPS, and 125 μM EGTA). The mixture was then preincubated on an orbital shaker for 30 min at room temperature in microtiter plates (Costar 3365, Corning, USA). A polymerization reaction was initiated by the addition of RNA template/pD500 DNA primer hybrid (16.6 nM final of RNA/DNA hybrid) and dNTPs (2 μM dATP, dGTP, dCTP and 66.6 nM Ru-dUTP (Meso Scale Discovery, USA)). Plate was sealed and incubated for 5-10 min at room temperature on an orbital shaker. Plate was then incubated for 90 min at 37° C. and reactions quenched with 60 μl quenching buffer (50 mM EDTA, 0.7% BSA, 0.7% Tween-20, 0.017% sodium azide in PBS). The resulting solution was incubated at room temperature for an additional 5 min and then 50 μL was transferred to pre-blocked Avidin plates (L15AA, Meso Scale Discovery). Each well of Avidin plate was blocked for 1 h at room temperature with 100 μL 5% BSA in PBS. Blocking solution was removed by tapping vigorously on filter paper to remove all excess liquid. Reaction on pre-blocked avidin plate proceeded for 60 min at room temperature and then contents removed by tapping vigorously on filter paper to remove all excess liquid. After washing plate 3 times with 150 μL 1×PBS and blotting dry between cycles, 150 μL 1× Read Buffer T (4× Read Buffer T, Meso Scale Discovery) was added and incubated for 5 min at room temperature before counting on a Sector Imager […] (Meso Scale Discovery). Titration curves and IC50 values were calculated using a four parameter logistic fit according to standard procedures. Briefly, % Inhibition=100×((sample raw value)−(mean value of the low control or 0% inhibition))/((mean value of wells representing 100% inhibition)−(mean value of 0% inhibition)). In this assay, low control wells contain DMSO (0% inhibition) and 100% inhibition wells contain 1 μM efavirenz.

Data set [2] in a line: Pharmacokinetic studies in rats, oral gavage, plasma LC-MS/MS. It counts as in vivo. As to conditions: male, Wistar-Hannover; rat, 5 mg/kg PO, 40% PEG400/10% Tween-80/50% water; plasma concentration of Parent after dosing the Parent compound. As for the experimental part: All animal studies were carried out under Good Laboratory Practice regulations for nonclinical laboratory studies. All animal housing and care procedures were in compliance with the Federal Animal Welfare Act and the Institute for Laboratory Animal Resources. All procedures carried out on the animals were reviewed and approved by the Institutional Animal Care and Use Committee. The animal facility was fully accredited with the Association for Assessment and Accreditation of Laboratory Animal Care International.
Two or three male Wistar-Hannover rats weighing 250 to 350 grams with vendor-placed carotid artery catheters were obtained from Charles River (Raleigh, N.C., U.S.A.). Animals were acclimated on a 12-hour light:dark cycle for a minimum of three days in ventilated plastic cages with food and water ad libitum. Blood samples were automatically collected using the Instech Automated Blood sampler (ABS, Plymouth Meeting, Pa.) at designated intervals up to 24 hr and were manually collected post 24 hr.
Animals were fasted overnight before either the Parent compounds of Examples 1-8 (Formula I′) or compounds of Examples 1 to 8 (Formula I) were administered to rats via an oral gavage at the doses and in vehicles specified in Table 3. The animals were allowed access to water ad libitum, while food was returned 4 hours after dosing.
Blood was drawn from catheters placed in the carotid […] at pre-dose, and 0.25, 0.5, 1, 2, 4, 8, 12, 18, 24, 30, and 48 hr after dosing for all compounds and additionally at 72 hr for compounds of example 1, 3, 4, 5, and 7. The plasma was separated by centrifugation (2 minutes at 10000 rpm) and stored at −70° C. until further analysis.
The quantitative analysis of the compounds was performed using a liquid chromatography and tandem mass spectrometry method (LC-MS/MS). The plasma samples were stabilized as needed prior to extraction. Fifty microliter of each unknown together with the standards and quality control samples were extracted using an automated protein precipitation procedure on a Hamilton workstation. The extract was centrifuged and the supernatant was transferred for analysis. The separation was enabled by a Thermo Aria LX-2 LC system on a reversed phase column e g Waters XSelect HSS T3 XP (50×2.1 mm×2.5 u) or Phenomenex Beta Test Column (50×2.1 mm). The compounds were detected using selected reaction monitoring (SRM) methods by an AB Sciex API5000 mass spectrometer in the positive or negative ionization mode. In addition, chromatographic peaks for Parent compounds of Examples 1-8 (Formula I′) and compounds of Examples 1 to 8 (Formula I) were resolved chromatographically with baseline to baseline separation.
Pharmacokinetic parameters were obtained using noncompartmental methods (Watson®). The area under the plasma concentration-time curve (AUC0-t) was calculated from the first time point (0 minutes) up to the last time point with measurable drug concentration (i.e., concentration of Parent (Formula I′ compound) resulting after administration of each of the Parent and Example compounds) using the linear trapezoidal or linear/log-linear trapezoidal rule. The remaining area under the plasma concentration-time curve (AUCt-∞) was estimated by dividing the observed concentration at the last time point by the elimination rate constant. This value was added to AUC0-t to estimate the AUC0-∞. The maximum plasma concentration (Cmax) and the time at which maximum concentration occurred (Tmax) were obtained by inspection of the plasma concentration-time data.
Table 3 provides AUC values obtained in these studies. In Table 3, the Parent of each Example number refers to the Parent counterpart compound of said Example number compound wherein R^4 is replaced with —H.

In general, IC50 refers to the midpoint of a concentration-inhibition curve. As usually defined, the AUC(0-inf) is total exposure, with the tail of the curve extrapolated. For `CC(F)(F)c1cc(Cn2cnc(C(F)(F)F)c(Oc3cc(Cl)cc(C#N)c3)c2=O)c(=O)[nH]n1` [Parent of Ex. 5, 3-chloro-5-((1-((6-(1,1-difluoroethyl)-3-oxo-2,3-dihydropyridazin-4-yl)methyl)-6-oxo-4-(trifluoromethyl)-1,6-dihydropyrimidin-5-yl)oxy)benzonitrile], the IC50 in data set [1] came out at 4.6 nM. For the same compound, in data set [2], the AUC(0-inf) stood at 29.1 µM·h.

In data set [1], `N#Cc1cc(Cl)cc(Oc2c(C(F)(F)F)ncn(Cc3cc(C(F)(F)F)c(=O)[nH]n3)c2=O)c1` [Parent of Ex. 6, 3-chloro-5-((6-oxo-1-((6-oxo-5-(trifluoromethyl)-1,6-dihydropyridazin-3-yl)methyl)-4-(trifluoromethyl)-1,6-dihydropyrimidin-5-yl)oxy)benzonitrile] had an IC50 of 7.9 nM. Further, the AUC(0-inf) in data set [2] came out at 2 µM·h.

Turning to `N#Cc1cc(Cl)cc(Oc2c(C(F)(F)F)ncn(Cc3cc(-c4ccc(F)cc4)c(=O)[nH]n3)c2=O)c1` [Parent of Ex. 7, 3-chloro-5-((1-((5-(4-fluorophenyl)-6-oxo-1,6-dihydropyridazin-3-yl)methyl)-6-oxo-4-(trifluoromethyl)-1,6-dihydropyrimidin-5-yl)oxy)benzonitrile], the IC50 in data set [1] came out at 3.7 nM. In addition, the AUC(0-inf) in data set [2] stood at 8.2 µM·h.

Regarding `N#Cc1cc(Cl)cc(Oc2c(C(F)(F)F)ncn(Cc3cc(Cl)n[nH]c3=O)c2=O)c1` [Parent of Ex. 3, 3-chloro-5-((1-((6-chloro-3-oxo-2,3-dihydropyridazin-4-yl)methyl)-6-oxo-4-(trifluoromethyl)-1,6-dihydropyrimidin-5-yl)oxy)benzonitrile], half-maximal inhibition in data set [1] (IC50) required 2.7 nM. Also, the area under the curve AUC(0-inf) in data set [2] is 10.2 µM·h.

As to `N#Cc1cc(Cl)cc(Oc2c(C(F)(F)F)ncn(Cc3cc(C(F)F)n[nH]c3=O)c2=O)c1` [Parent of Ex. 4, 3-chloro-5-((1-((6-(difluoromethyl)-3-oxo-2,3-dihydropyridazin-4-yl)methyl)-6-oxo-4-(trifluoromethyl)-1,6-dihydropyrimidin-5-yl)oxy)benzonitrile], the IC50 in data set [1] was determined as 3.2 nM. Moreover, in data set [2], the AUC(0-inf) is 21 µM·h.

In turn, `CC(F)(F)c1cc(Cn2cnc(C(C)(F)F)c(Oc3cc(Cl)cc(C#N)c3)c2=O)c(=O)[nH]n1` [Parent of Ex. 8, 3-chloro-5-((4-(1,1-difluoroethyl)-1-((6-(1,1-difluoroethyl)-3-oxo-2,3-dihydropyridazin-4-yl)methyl)-6-oxo-1,6-dihydropyrimidin-5-yl)oxy)benzonitrile] returned an IC50 in data set [1] of 4.7 nM. Also, in data set [2], the AUC(0-inf) is 13.9 µM·h.

With `N#Cc1cc(Cl)cc(Oc2c(C(F)F)ncn(Cc3cc(Cl)n[nH]c3=O)c2=O)c1` [Parent of Ex. 2, 3-chloro-5-((1-((6-chloro-3-oxo-2,3-dihydropyridazin-4-yl)methyl)-4-(difluoromethyl)-6-oxo-1,6-dihydropyrimidin-5-yl)oxy)benzonitrile], in data set [1], the IC50 is 3.3 nM. Besides, the AUC(0-inf) in data set [2] is 15.3 µM·h.
